pIC50: −log10 of the molar value.
Target: T1, trypsin-activated recombinant human renin (Homo sapiens, UniProt P00797)
T1 sequence (P00797 67-406): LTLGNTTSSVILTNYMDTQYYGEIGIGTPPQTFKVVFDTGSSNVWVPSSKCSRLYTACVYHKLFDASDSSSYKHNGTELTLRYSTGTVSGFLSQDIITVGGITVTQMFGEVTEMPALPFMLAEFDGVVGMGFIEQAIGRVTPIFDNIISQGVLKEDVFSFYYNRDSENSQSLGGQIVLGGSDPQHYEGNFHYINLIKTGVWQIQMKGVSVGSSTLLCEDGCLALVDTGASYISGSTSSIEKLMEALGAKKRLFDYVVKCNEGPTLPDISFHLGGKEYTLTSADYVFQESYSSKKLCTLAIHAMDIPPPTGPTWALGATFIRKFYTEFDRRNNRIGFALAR
Assay: IC50 for renin, fluorescence of quenched peptide substrate (protocols of Example 3 or 4)
Assay type: biochemical
Details: protocols described in Example 3 or 4; class according to the IC50 values; read-out: IC50 for renin, class in words
Method: The sequence of this peptide corresponds to the sequence of human angiotensinogen. The following test protocol is used: All reactions are carried out in a flat bottom white opaque microtiter plate. A 4 μL aliquot of 400 μM renin substrate (DABCYL-γ-Abu-[…]EDANS) in 192 μL assay buffer (50 mM BES, 150 mM NaCl, 0.25 mg/mL bovine serum albumin, pH7.0) is added to 4 μL of test compound in DMSO at various concentrations ranging from 10 μM to 1 nM final concentrations. Next, 100 μL of trypsin-activated recombinant human renin (final enzyme concentration of 0.2-2 nM) in assay buffer is added, and the solution is mixed by pipetting. The increase in fluorescence at 495 nm (excitation at 340 nm) is measured for 60-360 min at rt using a Perkin-Elmer Fusion microplate reader. The slope of a linear portion of the plot of fluorescence increases as a function of time is then determined, and the rate is used for calculating percent inhibition in relation to uninhibited control. […]
All reactions are carried out in a low volume, black, 384 well microtiter plate (Greiner Bio-one). […] After 2 hours of reaction at room temperature, the plates were read on a Viewlux™ (Perkin Elmer) with an excitation/emission of 485/530 nm, and using a 505 nm cutoff filter. […]
The IC50 values of the disclosed compounds for renin were determined according to the protocols described in Example 3 or 4. […]

| Structure (SMILES) | pIC50 |
| --- | --- |
| COCCCC[C@](O)(CCN(C)C(=O)[C@H]1C[C@@H](N)[C@@H](O)C1)c1cccc(Cl)c1-c1cccc(C)c1 [Compound 11, (1S,3R,4S)-3-amino-N—((S)-3-(6-chloro-3′-methylbiphenyl-2-yl)-3-hydroxy-7-methoxyheptyl)-4-hydroxy-N-methylcyclopentanecarboxamide] | 7.30 to 11.00 |
| COCCCCC(O)(CCN(C)C(=O)[C@H]1C[C@@H](N)[C@@H](O)C1)c1cccc(Cl)c1-c1cccc(C)c1 (stereo partly drawn) [Compound 1, (1S,3R,4S)-3-amino-N-[3-(6-chloro-3′-methyl-2-biphenylyl)-3-hydroxy-7-(methyloxy)heptyl]-4-hydroxy-N-methylcyclopentanecarboxamide] | 7.30 to 11.00 |

Source: US20100168243A1, “Renin Inhibitors” (priority 2007, published 2010)
